Experimental data published in patent publication US7772263B2, “Compounds for the treatment of inflammatory disorders” (Schering Corporation, priority 2006, dated 2010).
Read-outs that look alike come from different tables or passages of the source.

Biological target: T1, purified catalytic domain of recombinant human TACE (rhTACEc) (Homo sapiens, UniProt P78536, N452Q/S266A)
T1 construct: rhTACEc, Residue 215 to 477 with two mutation (S266A and N4520) and a 6×His tail; 6xHis (C); made in house; host or cells: baculovirus/Hi5 insect cells
Test: TACE kinetic assay, cleavage of internally quenched fluorescent peptide substrate SPDL-3
Format: biochemical

[1] = TACE, class letters A-D, read-out: Ki Rating
[2] = rhTACEc 70 pM, 30 μM SPDL-3, 90 min pre-incubation at 25° C., read-out: Ki (nM), TACE inhibitory activity

T1 sequence (P78536 215-477 S266A/N452Q limits assumed): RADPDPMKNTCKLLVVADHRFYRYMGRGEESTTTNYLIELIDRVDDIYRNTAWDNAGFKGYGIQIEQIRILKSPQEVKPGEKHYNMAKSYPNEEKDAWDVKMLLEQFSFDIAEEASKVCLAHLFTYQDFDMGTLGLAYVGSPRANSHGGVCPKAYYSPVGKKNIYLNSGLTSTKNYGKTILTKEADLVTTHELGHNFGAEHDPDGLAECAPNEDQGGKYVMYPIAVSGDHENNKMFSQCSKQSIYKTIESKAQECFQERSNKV

SMILES	Ki [1]	Ki [2]	Ki (Ki (nM), TACE inhibitory activity, rhTACEc 70 pM, 30 μM SPDL-3, 90 min pre-incubation at 25° C.)
COc1ccc2c(c1)CCN(C[C@@]1(C#Cc3cccnc3)NC(=O)NC1=O)C2=O [Compound 1092]	< 5 nM	0.37 nM	–
COc1ccc2c(c1)CCN(C[C@]1(C#Cc3cccnc3)NC(=O)NC1=O)C2=O [Compound 1096]	> 100 nM	–	–
COc1ccc2c(c1)C(=O)N(C[C@@]1(C#Cc3cnc4[nH]c(C)nc4c3C)NC(=O)NC1=O)C2 [Compound 1098]	< 5 nM	–	–
COc1ccc2c(c1)C(=O)N(C[C@@]1(C#Cc3ccc4[nH]ccc4c3)NC(=O)NC1=O)C2 [Compound 1129]	< 5 nM	–	0.17 nM
COc1ccc2c(c1)C(=O)N(C[C@]1(C#Cc3ccc4[nH]ccc4c3)NC(=O)NC1=O)C2 [Compound 1130]	5 to 25 nM	–	–
COc1ccc2c(c1)C(=O)N(C[C@@]1(C#Cc3ccc4cc[nH]c4c3)NC(=O)NC1=O)C2 [Compound 1131]	< 5 nM	–	–
COc1ccc2c(c1)C(=O)N(C[C@@]1(C#Cc3cccc4[nH]ccc34)NC(=O)NC1=O)C2 [Compound 1132]	< 5 nM	1.8 nM	–
COc1ccc2c(c1)C(=O)N(C[C@@]1(C#Cc3ccc(C(N)=O)cc3)NC(=O)NC1=O)C2 [Compound 1133]	< 5 nM	–	–
COc1ccc2c(c1)C(=O)N(C[C@@]1(C#Cc3cccc(C(N)=O)c3)NC(=O)NC1=O)C2 [Compound 1134]	< 5 nM	–	–
CCOC(=O)c1ccc(C#C[C@]2(CN3Cc4ccc(OC)cc4C3=O)NC(=O)NC2=O)cc1 [Compound 1135]	< 5 nM	–	–
COc1ccc2c(c1)C(=O)N(C[C@@]1(C#Cc3ccc(C(=O)O)cc3)NC(=O)NC1=O)C2 [Compound 1138]	< 5 nM	–	–
COc1ccc2c(c1)C(=O)N(C[C@@]1(C#Cc3ccc4c(c3)OCO4)NC(=O)NC1=O)C2 [Compound 1139]	< 5 nM	–	–
COc1ccc2c(c1)C(=O)N(C[C@@]1(C#Cc3ccc(Cl)c(C(=O)O)c3)NC(=O)NC1=O)C2 [Compound 1140]	< 5 nM	–	–
COc1ccc2c(c1)C(=O)N(C[C@@]1(C#Cc3ccc(C(=O)NCCN(C)C)cc3)NC(=O)NC1=O)C2 [Compound 1142]	< 5 nM	–	–
COc1ccc2c(c1)C(=O)N(C[C@@]1(C#Cc3ccc(Cl)c(C(=O)NCCN(C)C)c3)NC(=O)NC1=O)C2 [Compound 1143]	< 5 nM	–	–
COc1ccc2c(c1)C(=O)N(C[C@@]1(C#Cc3ccc(C(=O)N4CCOCC4)cc3)NC(=O)NC1=O)C2 [Compound 1145]	< 5 nM	–	–
COc1cccc(C#C[C@]2(CN3Cc4ccc(OC)cc4C3=O)NC(=O)NC2=O)c1 [Compound 1147]	< 5 nM	–	–

SMILES	Ki [1]	Ki [2]	Ki (Ki (nM), TACE inhibitory activity, rhTACEc 70 pM, 30 μM SPDL-3, 90 min pre-incubation at 25° C.)
COc1ccc2c(c1)C(=O)N(C[C@@]1(C#Cc3cccc(OC(F)F)c3)NC(=O)NC1=O)C2 [Compound 1148]	< 5 nM	–	–
COc1ccc2c(c1)C(=O)N(C[C@@]1(C#Cc3ccc(F)c(C(N)=O)c3)NC(=O)NC1=O)C2 [Compound 1151]	< 5 nM	–	–
COc1ccc2c(c1)C(=O)N(C[C@@]1(C#Cc3ccc(N)nc3)NC(=O)NC1=O)C2 [Compound 1152]	< 5 nM	0.03 nM	–
COc1ccc2c(c1)CN(C[C@@]1(C#Cc3cc(F)cc(F)c3)NC(=O)NC1=O)C2=O [Compound 1201]	< 5 nM	–	–
COc1ccc2c(c1)CN(C[C@@]1(C#Cc3ccc(F)cc3F)NC(=O)NC1=O)C2=O [Compound 1202]	< 5 nM	–	–
COc1ccc2c(c1)C(=O)N(C[C@@]1(C#Cc3ccc4occc4c3)NC(=O)NC1=O)C2 [Compound 1203]	< 5 nM	–	–
COc1ccc2c(c1)C(=O)N(C[C@@]1(C#Cc3cn(C)c(=O)n(C)c3=O)NC(=O)NC1=O)C2 [Compound 1204]	< 5 nM	–	–
COc1ccc2c(c1)C(=O)N(C[C@@]1(C#Cc3c[nH]c(=O)[nH]c3=O)NC(=O)NC1=O)C2 [Compound 1205]	< 5 nM	–	–
O=C1NC(=O)[C@@](C#Cc2ccc3cnoc3c2)(CN2Cc3ccc(F)cc3C2=O)N1 [Compound 1211]	< 5 nM	–	–
COc1ccc2c(c1)C(=O)N(C[C@@]1(C#Cc3ccc4nn(C(C)C)cc4c3)NC(=O)NC1=O)C2 [Compound 1212]	< 5 nM	–	–
COc1ccc2c(c1)C(=O)N(C[C@@]1(C#Cc3ccc4c(cnn4C(C)C)c3)NC(=O)NC1=O)C2 [Compound 1213]	< 5 nM	–	–
COc1ccc2c(c1)C(=O)N(C[C@@]1(C#Cc3ccc4cnoc4c3)NC(=O)NC1=O)C2 [Compound 1214]	< 5 nM	–	–
COc1ccc2c(c1)C(=O)N(C[C@@]1(C#Cc3ccc(N)c(OC(F)(F)F)c3)NC(=O)NC1=O)C2 [Compound 1216]	< 5 nM	–	–
COc1ccc2c(c1)C(=O)N(C[C@@]1(C#Cc3cc(F)c(F)cc3OC)NC(=O)NC1=O)C2 [Compound 1217]	< 5 nM	–	–
COc1ccc2c(c1)C(=O)N(C[C@@]1(C#Cc3ccc(F)cc3C#N)NC(=O)NC1=O)C2 [Compound 1218]	< 5 nM	–	–
COc1ccc2c(c1)C(=O)N(C[C@@]1(C#Cc3cc(C)ccc3C#N)NC(=O)NC1=O)C2 [Compound 1219]	< 5 nM	–	–

Now from value to compound, other results behind:

Ki [1]	Ki [2]	SMILES	Ki (Ki (nM), TACE inhibitory activity, rhTACEc 70 pM, 30 μM SPDL-3, 90 min pre-incubation at 25° C.)
< 5 nM	–	COc1ccc2c(c1)CCN(C[C@@]1(C#Cc3ccc(Cl)s3)NC(=O)NC1=O)C2=O [Compound 1093]	–
> 100 nM	–	COc1ccc2c(c1)C(=O)N(C[C@]1(C#Cc3cnc4[nH]c(C)nc4c3C)NC(=O)NC1=O)C2 [Compound 1094]	–
< 5 nM	–	COc1ccc2c(c1)C(=O)N(C[C@@]1(C#Cc3ccc4c(c3)n(C)c(=O)n4C)NC(=O)NC1=O)C2 [Compound 1095]	–
> 100 nM	–	COc1ccc2c(c1)CCN(C[C@]1(C#Cc3ccc(Cl)s3)NC(=O)NC1=O)C2=O [Compound 1097]	–
< 5 nM	–	COc1ccc2c(c1)C(=O)N(C[C@@]1(C#Cc3ccc(-c4ncc[nH]4)cc3)NC(=O)NC1=O)C2 [Compound 1136]	–
< 5 nM	–	COc1ccc2c(c1)C(=O)N(C[C@@]1(C#Cc3ccccc3C(N)=O)NC(=O)NC1=O)C2 [Compound 1137]	–
< 5 nM	–	CNC(=O)c1ccc(C#C[C@]2(CN3Cc4ccc(OC)cc4C3=O)NC(=O)NC2=O)cc1 [Compound 1141]	–
< 5 nM	–	CNC(=O)c1cc(C#C[C@]2(CN3Cc4ccc(OC)cc4C3=O)NC(=O)NC2=O)ccc1Cl [Compound 1144]	–
< 5 nM	–	COc1ccc2c(c1)C(=O)N(C[C@@]1(C#Cc3ccccc3Cl)NC(=O)NC1=O)C2 [Compound 1146]	–
< 5 nM	–	COc1ccc2c(c1)C(=O)N(C[C@@]1(C#Cc3ccc(F)c(OC)c3)NC(=O)NC1=O)C2 [Compound 1149]	–
< 5 nM	–	COc1ccc2c(c1)C(=O)N(C[C@@]1(C#Cc3ccc(F)c(O)c3)NC(=O)NC1=O)C2 [Compound 1150]	–
< 5 nM	–	COc1ccc2c(c1)C(=O)N(C[C@@]1(C#Cc3ccc(N4CCOCC4)nc3)NC(=O)NC1=O)C2 [Compound 1153]	–
< 5 nM	–	COc1ccc2c(c1)C(=O)N(C[C@@]1(C#Cc3ccccc3C#N)NC(=O)NC1=O)C2 [Compound 1154]	–
< 5 nM	0.41 nM	COc1ccc2c(c1)C(=O)N(C[C@@]1(C#Cc3ccc(C)nc3)NC(=O)NC1=O)C2 [Compound 1155]	–
< 5 nM	–	COc1ccc2c(c1)C(=O)N(C[C@@]1(C#Cc3ccc(C)cc3)NC(=O)NC1=O)C2 [Compound 1156]	–
< 5 nM	–	COc1ccc2c(c1)C(=O)N(C[C@@]1(C#Cc3ccc(NC(C)=O)nc3)NC(=O)NC1=O)C2 [Compound 1157]	–
< 5 nM	–	O=C1NC(=O)[C@@](C#Cc2cccnc2)(CN2Cc3ccc(F)cc3C2=O)N1 [Compound 1200]	–
< 5 nM	–	COc1ccc2c(c1)C(=O)N(C[C@@]1(C#Cc3nc4ncnc(N)c4n3C)NC(=O)NC1=O)C2 [Compound 1208]	–
< 5 nM	–	COc1ccc2c(c1)C(=O)N(C[C@@]1(C#Cc3cncc(-c4nnn(C)n4)c3)NC(=O)NC1=O)C2 [Compound 1215]	–
